# In patent US12180252B2, “Peptide derived from PEP27 peptide and uses thereof” (priority 2021, dated 2024):
# Where two headings read alike, the source gives them in different places. Where a SMILES comes first, the peptide text is derived from it.
# How the values were obtained:
# [1] = system: Staphylococcus aureus MW2; format: in vivo, BALB/c mouse; conditions: for reduction of the number of bacteria in abscess tissue: 0.2 mg/kg alone, injected 2 hours after infection
# Description: The efficacy of PEP27-2, which is the peptide having the most excellent antimicrobial activity among the peptides prepared by the method of above 1 was evaluated in vivo using a mouse model.
# Specifically, the epidermis on the back side (dorsal side) of 6-7 week old BALB/c mouse was infected with Staphylococcus aureus MW2 having GFP gene inserted therein (S. aureus MW2-GFP, 1×10^9 CFU/10 μl PBS). After 2 hours form infection, PEP27-2 alone (0.2 mg/kg, 50 μl), ceftriaxone alone (0.2 mg/kg, 50 μl) or a combination of the peptide and the antibiotic (0.05 mg/kg PEP27-2+0.1 mg/kg ceftriaxone, 50 μl) was injected. Further, the control mice were injected with the same amount of PBS ([…]) without peptide. On 1st, 2nd, 3rd, 4th, 5th and 7th days after treatment, the shape of abscess was photographed, and surrounding tissues as well as the abscess were gathered. The abscess tissue was homogenized in 500 μl of sterile PBS using a tissue grinder. A serial diluted solution of the homogenate was spread on an agar plate and cultured for 24 hours in order to quantify the Staphylococcus aureus MW2 strain.
# S. aureus ATCC25923 = test: microbe, parasite or virus in culture; conditions: Staphylococcus aureus, ATCC25923, 18 h, read-out: Minimal inhibitory concentration
# Description: (§1) In order to evaluate the antimicrobial activity of the peptides prepared by the method of above 1, a minimal inhibitory concentration (MIC) value as the minimum concentration of a peptide, in which cells are not divided, was measured.
# (§2) Specifically, the strains shown in Table 3 below were purchased, cultured in a medium having a constitutional composition suitable for each strain to a mid-log phase, and then diluted to a concentration of 2×10^4 cells/100 μl to prepare the product on a micro-titration plate (Nunc, USA). Then, PEP27, PEP27-1, PEP27-2 or PEP27-5 peptide synthesized in the above 1 was added to each well by serial dilution ½ times, followed by incubation at 37° C. for 18 hours.
# (§3) Specifically, subject strains were prepared by the method of above 2, and were treated with the antibiotics, that is, meropenem, ceftazidime, ceftriaxone or vancomycin, respectively, followed by determining MICs of the antibiotics.
# P. aeruginosa 4891 = test: microbe, parasite or virus in culture; conditions: Pseudomonas aeruginosa, 4891, 18 h, read-out: Minimal inhibitory concentration
# Description: as §1, §2, §3
# S. aureus CCARM3090 = test: microbe, parasite or virus in culture; conditions: Staphylococcus aureus, CCARM3090, 18 h, read-out: Minimal inhibitory concentration
# Description: as §1, §2, §3
# P. aeruginosa 4007 = test: microbe, parasite or virus in culture; conditions: Pseudomonas aeruginosa, 4007, 18 h, read-out: Minimal inhibitory concentration
# Description: as §1, §2, §3
# P. aeruginosa ATCC27853 = test: microbe, parasite or virus in culture; conditions: Pseudomonas aeruginosa, ATCC27853, 18 h, read-out: Minimal inhibitory concentration
# Description: as §1, §2, §3
# S. aureus CCARM3089 = test: microbe, parasite or virus in culture; conditions: Staphylococcus aureus, CCARM3089, 18 h, read-out: Minimal inhibitory concentration
# Description: as §1, §2, §3
# S. aureus USA300 = test: microbe, parasite or virus in culture; conditions: Staphylococcus aureus, USA300, 18 h, read-out: Minimal inhibitory concentration
# Description: as §1, §2, §3
# S. aureus ATCC29213 = test: microbe, parasite or virus in culture; conditions: Staphylococcus aureus, ATCC29213, 18 h, read-out: Minimal inhibitory concentration
# Description: as §1, §2, §3
# S. aureus MW2 = test: microbe, parasite or virus in culture; conditions: Staphylococcus aureus, MW2, 18 h, read-out: Minimal inhibitory concentration
# Description: as §1, §2, §3
# P. aeruginosa ATCC15692 = test: microbe, parasite or virus in culture; conditions: Pseudomonas aeruginosa, ATCC15692, 18 h, read-out: Minimal inhibitory concentration
# Description: as §1, §2, §3
# S. aureus CCARM3518 = test: microbe, parasite or virus in culture; conditions: Staphylococcus aureus, CCARM3518, 18 h, read-out: Minimal inhibitory concentration
# Description: as §1, §2, §3
# [2] = system: Staphylococcus aureus MW2-GFP; format: in vivo, mouse; conditions: up to 3 days after infection with 1×10^9 CFU
# Description: For real-time tracking the progress of infection with regard to the peptide that has the most excellent antimicrobial activity among the peptides prepared by the method of above 1, fluorescence (GFP)-labeled Staphylococcus aureus MW2 (Staphylococcus aureus MW2-GFP) was used. Fluorescence images were taken from the beginning of infection to 6 hours, 1 day, 2 days and 3 days by means of an FOBI fluorescence imaging system (Neo Science, Suwon, Korea), followed by analysis thereof using live image software.
# [3] = system: TNF-α, IL-1β, IL-6, iNOS and COX-2; test: Pro-inflammatory cytokine gene expression in abscess tissue, qPCR; format: in vivo, mouse; conditions: mRNA relative to β-actin
# Description: For mice not infected with bacteria, infected mice, and mice subjected to treatment using PEP27-2 alone, ceftriaxone alone or a combination thereof after infection, the expression of inflammatory genes in the mice were measured thus to verify the efficacy of each of PEP27-2 single treatment and combination treatment with antibiotics.
# Specifically, total RNA was isolated from wound tissues using Trizol reagent. From the prepared total RNA, cDNA was synthesized using a cDNA synthesis kit. qPCR was implemented using qPCR 2× premix (SYBR Green), followed by determining expression amounts of TNF-α, IL-1β, IL-6, iNOS and COX-2 among inflammatory genes. Expression levels were quantified based on β-actin, and the PCR process was conducted as followed: at 50° C. for 2 minutes and at 95° C. for 10 minutes; 95° C. for 15 seconds, 60° C. for 1 minute, 40 cycles; 95° C. for 15 seconds, 60° C. for 1 minute, 95° C. for 30 seconds, and 60° C. for 15 seconds. The gene expression was calculated after standardization to β-actin level through ΔΔCt method.
# [4] = system: Staphylococcus aureus MW2; test: Hematoxylin and eosin staining of abscess tissue; format: in vivo, mouse; conditions: tissue on day 7, treated 2 hours after infection
# From the text: Among tissues on the abscess portion and infected portion gathered in the above 13, the tissue on day 7 was fixed with 4% buffered formalin. The infection portion or abscess portion fixed with formalin was embedded in paraffin, while staining a fragment of the cross-section with hematoxylin and eosin.
# [5] = Calcein release from LUVs; conditions: peptide-to-lipid (P/L) ratio 0.2; PE/PG and PC/CH/SM liposomes; 100% = 0.1% Triton X-100
# Description: To examine the mechanism of action of PEP27 and PEP27-2, we evaluated the changes in bacterial cell membrane permeability by monitoring the release of calcein, a fluorescent marker, from calcein entrapped LUVs with different lipid bilayer compositions.
# Peptide-induced membrane permeabilization was quantified by monitoring calcein release from LUVs (n=3 per condition). Different calcein-entrapped LUVs [PE/PG (7/3) or PC/CH/SM (1/1/1)] were prepared as described above, except that the dry lipid films were resuspended in 1 mL of PBS (pH 7.2) containing 70 mM calcein. Gel filtration chromatography on a Sephadex G-50 column was performed to separate free calcein from that entrapped in LUVs. Thereafter, the LUVs with entrapped calcein were mixed with peptides at various ratios, and the fluorescence of the released calcein was measured with a SpectraMax M3 Multi-Mode Microplate Reader (Molecular Devices, Sunnyvale, CA, USA) at excitation and emission wavelengths of 480 and 520 nm, respectively.
# MTT cytotoxicity = format: cell-based, human; conditions: human; 100 μM, 24 h, MTT, HaCaT and MCF-7 cells; read-out: cell viability
# Description: Specifically, Thiazolyl blue tetrazolium bromide (MTT, Merck KGaA) was used to determine the cytotoxicity of PEP27 and its analogs against HaCaT (human keratinocyte […], n=4 per condition) and MCF-7 (human breast adenocarcinoma, n=3 per condition) cells. The cells were cultured in Dulbecco's modified Eagle's medium (DMEM) supplemented with 10 heat-inactivated fetal bovine serum (FBS, Gibco, Grand Island, NY, USA) and 1% penicillin-streptomycin (Gibco) at a density of 2×10^4 cells/well (96-well plate). Peptides were then added at various concentrations and incubated for 24 h at 37° C., after which MTT (final concentration, 0.5 mg/mL) was added to each well and incubated for 4 h. The formazan product was solubilized in DMSO, and the absorbance at 570 nm was measured to […] cytotoxicity. Cells treated with 0.1% Triton X-100 were used as the 100% cytotoxic control sample.
# [6] = system: red blood cells of a rat (Balb/c); conditions: 37° C., 1 hour
# Description: In order to compare the cytotoxicity of the peptides prepared by the method of above 1, erythrocyte hemolytic activity of each of the synthesized peptides was measured.
# Specifically, red blood cells of a rat (Balb/c, 6 weeks old, female) were diluted with PBS (pH 7.0) to a concentration of 8%, and PEP27, PEP27-1, PEP27-2 and PEP27-5 peptides were used for treatment of the cells at concentrations of 3.13, 6.25, 12.5, 25.01 50.0 and 100.0 μM/well, respectively, followed by reaction at 37° C. for 1 hour. Then, an amount of hemoglobin contained in the supernatant obtained by centrifugation at 1,000×g was determined by measuring the absorbance at a wavelength of 414 nm. As a control which is a standard for the degree of cell destruction, the absorbance of the obtained supernatant was measured after treatment using 1% Triton X-100 (Sigma, USA) and reaction at 37° C. for 1 hour. With reference to 100% erythrocytes hemolysis activity, hemolysis of each peptide was calculated from the measured absorbance using Equation 1 below. Erythrocyte destruction ability (%)=(Absorbance A−Absorbance B)/(Absorbance C−Absorbance B)×100 [Equation 1]
# (wherein, absorbance A represents the absorbance of a reaction solution treated with each peptide measured at a wavelength of 414 nm; absorbance B represents the absorbance of a reaction solution treated with PBS measured at a wavelength of 414 nm; and absorbance C represents the absorbance of a reaction solution treated with 1% Triton X-100 measured at a wavelength of 414 nm).
# E. coli = test: Flow cytometry, propidium iodide staining; format: cell-based, Escherichia coli
# Description: In order to confirm whether the peptide prepared by the method of above 1 acts on the bacterial membrane, PEP27-2 peptide having better antimicrobial activity than the parental peptide was analyzed through flow cytometry.
# Thereafter, the supernatant was removed using a centrifuge (10,000 rpm) and stained with propidium iodide (PI) at a concentration of 10 μg/ml at 4° C. for 30 minutes. Then, the unbound propidium iodide (PI) was removed using the centrifuge, and 1 ml of physiological saline (PBS) was added to remove agglomeration of the cells. Thereafter, effects of the peptide on the bacterial membrane were determined using a Bechman flow cytometer.
# plasmid DNA (pRSETB) = test: Peptide-DNA binding by agarose gel electrophoresis; conditions: peptide/DNA ratios 0.25:1 to 4:1, 300 ng plasmid DNA
# Description: Specifically, 300 ng of plasmid DNA (pRSETB) was reacted with the peptide by a relative ratio (reactions were performed at peptide/DNA ratios of DNA alone, 0.25:1, 0.5:1, 1:1, 1.5:1, 2:1, 3:1, 4:1, respectively) at 37° C. for 10 minutes, followed by conducting electrophoresis on a 1% agarose gel, staining the same with ethidium bromide (EtBr) and monitoring through UV.
# HaCaT cells = test: Cell absorption of peptide (fluorescence imaging); format: cell-based, human; conditions: 5 μM, 1 hour
# Description: With regard to the synthetic peptide prepared by the method of above 1, an ability of penetrating cells was determined through a phase-contrast microscope. Specifically, human keratinocyte line (HaCaT cells) was dispensed on a 6-well plate provided with a polylysine coating cover slip (SPL Life Sciences, Gyeonggi-do, Korea) at 2×10^5 cells/well and cultured for 24 hours, and then treated with fluorescein isothiocyanate (FITC)-labeled PEP27-2 (FITC-PEP27-2) at a concentration of 5 μM, followed by incubation in a 5% CO2 incubator for 1 hour. After 1 hour, a nucleus of the cell was treated and stained with Hoechst 33342 nucleic acid dye solution (Invitrogen, Carlsbad, CA, USA; 8 μM) for 10 minutes. After washing the stained product with PBS three times, fluorescence in the cells was imaged using a phase-contrast microscope (EVOS™ FL Auto 2 Imaging System, Thermo Fisher Scientific).
compound,measurement,setting,value
"CO/N=C(\C(=O)N[C@@H]1C(=O)N2C(C(=O)O)=C(CSc3nc(=O)c(=O)[nH]n3C)CS[C@H]12)c1csc(N)n1 [Ceftriaxone, ceftriaxone]",size of formed abscess,"[1]; compared with infected group injected only with PBS, up to day 7",smaller than the experimental group in which only PBS was injected
same,reduction of the number of bacteria in abscess tissue,[1]; day 3,46.0%
same,reduction of the number of bacteria in abscess tissue,[1]; day 7,61.5%
same,MIC,S. aureus ATCC25923,8 µM
same,MIC,P. aeruginosa 4891,64 µM
same,MIC,S. aureus CCARM3090,512 µM
same,MIC,P. aeruginosa 4007,16 µM
same,MIC,P. aeruginosa ATCC27853,8 µM
same,MIC,S. aureus CCARM3089,512 µM
same,MIC,S. aureus USA300,16 µM
same,MIC,S. aureus ATCC29213,4 µM
same,MIC,S. aureus MW2,32 µM
same,MIC,P. aeruginosa ATCC15692,16 µM
same,MIC,S. aureus CCARM3518,256 µM
same,fluorescence signal of S. aureus MW2-GFP at the abscess,[2],not reduced
same,"expression of inflammatory cytokines (TNF-α, IL-1β, IL-6, iNOS, COX-2)",[3],suppressed
same,number of visible scabs formed on the skin surface and number of bacteria,[4],markedly reduced
CSCC[C@H](N)C(=O)N[C@@H](CCCNC(=N)N)C(=O)N[C@@H](CCCCN)C(=O)N[C@@H](CCC(=O)O)C(=O)N[C@@H](Cc1ccccc1)C(=O)N[C@@H](Cc1c[nH]cn1)C(=O)N[C@@H](CC(N)=O)C(=O)N[C@H](C(=O)N[C@@H](CC(C)C)C(=O)N[C@@H](CO)C(=O)N[C@@H](CO)C(=O)NCC(=O)N[C@@H](CCC(N)=O)C(=O)N[C@@H](CC(C)C)C(=O)N[C@@H](CC(C)C)C(=O)N[C@@H](C)C(=O)N[C@@H](CC(=O)O)C(=O)N[C@@H](CCCCN)C(=O)N[C@@H](CCCNC(=N)N)C(=O)N1CCC[C@H]1C(=O)N[C@@H](C)C(=O)N[C@@H](CCCNC(=N)N)C(=O)N[C@@H](CC(=O)O)C(=O)N[C@@H](Cc1ccc(O)cc1)C(=O)N[C@@H](CC(N)=O)C(=O)N[C@@H](CCCNC(=N)N)C(=O)N[C@@H](CCCCN)C(N)=O)C(C)C [PEP27] (H-MRKEFHNVLSSGQLLADKRPARDYNRK-NH2; N-terminus assumed),calcein leakage,[5],12%
same,"viability at 24 h, 100 µM",MTT cytotoxicity,100%
same,Erythrocyte destruction ability,[6]; Peptide concentration 3.13 μM,0%
same,Erythrocyte destruction ability,[6]; Peptide concentration 6.25 μM,1.26%
same,Erythrocyte destruction ability,[6]; Peptide concentration 12.5 μM,1.79%
same,Erythrocyte destruction ability,[6]; Peptide concentration 25 μM,2.76%
same,Erythrocyte destruction ability,[6]; Peptide concentration 50 μM,3.64%
same,Erythrocyte destruction ability,"[6]; Peptide concentration 100 μM, 100% = 1% Triton X-100",3.58%
same,bacterial membrane destruction,"E. coli; E. coli, flow cytometry",without destruction of the E. coli membrane
same,PI-positive E. coli cells (membrane destruction ability),"E. coli; at MIC, 37° C., 1 hour",19.9%
same,binding to DNA (gel electrophoresis),plasmid DNA (pRSETB),bound to DNA
GRKKRRQRRRPQ (TAT),cellular absorption into HaCaT cells,HaCaT cells,absorbed into the cytoplasm and the nucleus of HaCaT cell
